Measured values published in ChEMBL document CHEMBL3991601, “The target landscape of clinical kinase drugs” (Science, 2017).
The source made the active and inactive calls. For most assays here, no stated cut-off is given here; in the data, actives have a measured Kd and inactives only a lower limit.

How the values were obtained:
[1] = target: Cyclin-dependent kinase 6 (Homo sapiens, UniProt Q00534)
[2] = target: Ephrin type-A receptor 2 (Homo sapiens, UniProt P29317)
[3] = target: Myosin light chain kinase, smooth muscle (Homo sapiens, UniProt Q15746)
Chain of Myosin light chain kinase, smooth muscle (Q15746 whole entry): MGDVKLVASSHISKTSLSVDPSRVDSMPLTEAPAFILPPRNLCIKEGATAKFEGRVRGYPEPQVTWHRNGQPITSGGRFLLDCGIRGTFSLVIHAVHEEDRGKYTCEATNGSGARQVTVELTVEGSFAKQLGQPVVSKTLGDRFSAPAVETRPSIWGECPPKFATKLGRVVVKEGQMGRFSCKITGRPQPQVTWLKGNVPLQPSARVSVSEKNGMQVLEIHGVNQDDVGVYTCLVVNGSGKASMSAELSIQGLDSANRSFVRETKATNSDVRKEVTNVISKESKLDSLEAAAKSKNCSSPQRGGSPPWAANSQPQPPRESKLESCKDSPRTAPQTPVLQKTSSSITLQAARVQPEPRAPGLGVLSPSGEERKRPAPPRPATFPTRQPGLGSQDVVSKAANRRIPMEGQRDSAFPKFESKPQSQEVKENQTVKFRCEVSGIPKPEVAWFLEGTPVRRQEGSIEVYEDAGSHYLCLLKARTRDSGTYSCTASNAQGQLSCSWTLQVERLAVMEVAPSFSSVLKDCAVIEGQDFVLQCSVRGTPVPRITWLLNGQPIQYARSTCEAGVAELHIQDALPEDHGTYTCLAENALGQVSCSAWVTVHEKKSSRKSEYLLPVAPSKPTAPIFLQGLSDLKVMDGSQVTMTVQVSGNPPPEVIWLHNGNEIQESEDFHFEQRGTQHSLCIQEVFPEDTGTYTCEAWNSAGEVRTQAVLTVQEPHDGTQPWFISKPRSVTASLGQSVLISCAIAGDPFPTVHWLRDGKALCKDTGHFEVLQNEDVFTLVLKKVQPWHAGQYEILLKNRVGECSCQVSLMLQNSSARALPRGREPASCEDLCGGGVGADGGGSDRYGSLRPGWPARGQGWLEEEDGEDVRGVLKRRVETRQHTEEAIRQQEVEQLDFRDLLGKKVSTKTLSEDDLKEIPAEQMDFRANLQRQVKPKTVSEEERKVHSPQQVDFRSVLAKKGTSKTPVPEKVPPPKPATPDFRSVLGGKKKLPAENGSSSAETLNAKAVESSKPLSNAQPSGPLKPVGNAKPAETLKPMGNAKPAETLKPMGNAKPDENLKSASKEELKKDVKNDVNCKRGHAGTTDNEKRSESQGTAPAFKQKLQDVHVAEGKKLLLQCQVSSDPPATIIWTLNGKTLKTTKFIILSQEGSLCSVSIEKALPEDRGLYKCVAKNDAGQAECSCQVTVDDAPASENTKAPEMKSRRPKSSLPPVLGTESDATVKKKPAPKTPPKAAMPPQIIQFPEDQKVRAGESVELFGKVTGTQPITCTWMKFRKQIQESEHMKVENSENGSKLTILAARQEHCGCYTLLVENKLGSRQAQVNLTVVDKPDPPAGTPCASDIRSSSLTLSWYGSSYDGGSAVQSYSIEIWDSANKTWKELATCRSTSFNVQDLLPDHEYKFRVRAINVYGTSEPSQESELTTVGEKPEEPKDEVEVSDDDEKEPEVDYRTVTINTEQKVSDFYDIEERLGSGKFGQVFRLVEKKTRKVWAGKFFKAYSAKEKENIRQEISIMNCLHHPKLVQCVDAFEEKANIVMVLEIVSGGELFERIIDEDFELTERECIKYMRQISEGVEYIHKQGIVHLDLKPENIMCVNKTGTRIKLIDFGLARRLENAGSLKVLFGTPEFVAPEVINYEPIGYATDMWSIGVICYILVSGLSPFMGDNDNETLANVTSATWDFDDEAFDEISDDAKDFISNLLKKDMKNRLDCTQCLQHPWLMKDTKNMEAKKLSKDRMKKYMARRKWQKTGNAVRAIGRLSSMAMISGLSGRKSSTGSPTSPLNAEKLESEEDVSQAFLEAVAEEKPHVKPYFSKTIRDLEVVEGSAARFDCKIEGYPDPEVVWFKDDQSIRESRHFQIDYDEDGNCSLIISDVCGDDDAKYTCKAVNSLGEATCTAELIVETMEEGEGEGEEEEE

[4] = target: Cyclin-dependent kinase 3 (Homo sapiens, UniProt Q00526)
Chain of Cyclin-dependent kinase 3 (Q00526 whole entry): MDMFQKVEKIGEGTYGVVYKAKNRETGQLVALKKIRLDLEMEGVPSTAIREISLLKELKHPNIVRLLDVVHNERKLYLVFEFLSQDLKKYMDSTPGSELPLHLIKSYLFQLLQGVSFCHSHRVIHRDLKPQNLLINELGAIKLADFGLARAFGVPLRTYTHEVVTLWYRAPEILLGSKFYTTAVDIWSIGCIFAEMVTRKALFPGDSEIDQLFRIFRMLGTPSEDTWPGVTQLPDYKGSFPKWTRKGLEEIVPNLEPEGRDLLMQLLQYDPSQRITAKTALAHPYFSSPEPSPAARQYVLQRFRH

[5] = target: T1, Beta-adrenergic receptor kinase 1 (Homo sapiens, UniProt P25098)
T1 sequence (P25098 whole entry): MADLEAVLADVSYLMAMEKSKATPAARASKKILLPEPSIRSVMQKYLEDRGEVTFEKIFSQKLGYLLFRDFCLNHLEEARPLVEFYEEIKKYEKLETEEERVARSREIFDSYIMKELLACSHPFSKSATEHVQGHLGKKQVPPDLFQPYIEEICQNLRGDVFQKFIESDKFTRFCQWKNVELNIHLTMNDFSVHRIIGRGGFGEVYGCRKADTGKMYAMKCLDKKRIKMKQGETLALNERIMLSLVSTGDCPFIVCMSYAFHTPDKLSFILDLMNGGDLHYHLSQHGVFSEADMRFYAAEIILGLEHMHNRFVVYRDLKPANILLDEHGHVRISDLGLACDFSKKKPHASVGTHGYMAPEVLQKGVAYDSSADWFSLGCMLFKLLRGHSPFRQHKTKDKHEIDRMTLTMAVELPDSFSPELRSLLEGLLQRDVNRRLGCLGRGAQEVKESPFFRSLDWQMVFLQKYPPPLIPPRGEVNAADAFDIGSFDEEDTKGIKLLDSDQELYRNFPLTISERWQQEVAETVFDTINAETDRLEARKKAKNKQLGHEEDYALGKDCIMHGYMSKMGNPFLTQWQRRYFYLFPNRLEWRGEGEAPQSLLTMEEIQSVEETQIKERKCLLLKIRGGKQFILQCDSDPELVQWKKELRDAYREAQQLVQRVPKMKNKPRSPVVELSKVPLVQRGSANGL

[6] = target: Insulin receptor (Homo sapiens, UniProt P06213)
[7] = target: U5 small nuclear ribonucleoprotein 200 kDa helicase (Homo sapiens, UniProt O75643)
[8] = target: Receptor-interacting serine/threonine-protein kinase 3 (Homo sapiens, UniProt Q9Y572)
Chain of Receptor-interacting serine/threonine-protein kinase 3 (Q9Y572 whole entry): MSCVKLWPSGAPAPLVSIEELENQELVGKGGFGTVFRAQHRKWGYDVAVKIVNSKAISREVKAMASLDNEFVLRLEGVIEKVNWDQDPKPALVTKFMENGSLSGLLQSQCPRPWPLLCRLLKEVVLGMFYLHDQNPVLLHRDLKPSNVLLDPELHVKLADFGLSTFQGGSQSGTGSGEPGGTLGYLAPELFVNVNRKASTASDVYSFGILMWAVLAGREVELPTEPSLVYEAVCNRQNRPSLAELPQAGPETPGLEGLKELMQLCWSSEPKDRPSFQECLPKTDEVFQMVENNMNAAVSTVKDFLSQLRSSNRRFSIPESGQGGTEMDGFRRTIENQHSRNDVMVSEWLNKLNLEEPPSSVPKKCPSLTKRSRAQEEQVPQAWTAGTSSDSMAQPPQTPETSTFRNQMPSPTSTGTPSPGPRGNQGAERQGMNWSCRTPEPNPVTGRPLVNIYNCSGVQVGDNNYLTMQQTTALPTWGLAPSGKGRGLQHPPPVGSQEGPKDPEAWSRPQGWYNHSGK

[9] = target: Calcium/calmodulin-dependent protein kinase kinase 2 (Homo sapiens, UniProt Q96RR4)
[10] = target: T2, Peroxisomal acyl-coenzyme A oxidase 3 (Homo sapiens, UniProt O15254)
T2 sequence (O15254 whole entry): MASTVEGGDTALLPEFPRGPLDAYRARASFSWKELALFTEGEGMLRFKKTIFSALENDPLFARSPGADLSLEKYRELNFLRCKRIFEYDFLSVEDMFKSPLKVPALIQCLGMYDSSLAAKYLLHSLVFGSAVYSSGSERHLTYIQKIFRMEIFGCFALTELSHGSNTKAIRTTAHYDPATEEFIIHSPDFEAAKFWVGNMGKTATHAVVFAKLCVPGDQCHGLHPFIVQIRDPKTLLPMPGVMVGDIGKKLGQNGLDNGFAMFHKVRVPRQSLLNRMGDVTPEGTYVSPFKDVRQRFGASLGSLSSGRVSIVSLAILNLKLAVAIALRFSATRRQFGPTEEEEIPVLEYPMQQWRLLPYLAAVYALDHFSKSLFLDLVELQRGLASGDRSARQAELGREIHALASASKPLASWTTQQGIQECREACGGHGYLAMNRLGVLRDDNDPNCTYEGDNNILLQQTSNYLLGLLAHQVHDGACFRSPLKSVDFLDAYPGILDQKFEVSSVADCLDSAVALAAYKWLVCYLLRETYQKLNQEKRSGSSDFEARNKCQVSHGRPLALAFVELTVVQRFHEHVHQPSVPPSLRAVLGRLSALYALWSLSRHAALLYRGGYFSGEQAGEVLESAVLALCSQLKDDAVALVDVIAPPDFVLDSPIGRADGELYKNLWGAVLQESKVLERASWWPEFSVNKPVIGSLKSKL

[11] = target: Adenosine kinase (Homo sapiens, UniProt P55263)
[12] = target: T3, Tyrosine-protein kinase Tec (Homo sapiens, UniProt P42680)
T3 sequence (P42680 whole entry): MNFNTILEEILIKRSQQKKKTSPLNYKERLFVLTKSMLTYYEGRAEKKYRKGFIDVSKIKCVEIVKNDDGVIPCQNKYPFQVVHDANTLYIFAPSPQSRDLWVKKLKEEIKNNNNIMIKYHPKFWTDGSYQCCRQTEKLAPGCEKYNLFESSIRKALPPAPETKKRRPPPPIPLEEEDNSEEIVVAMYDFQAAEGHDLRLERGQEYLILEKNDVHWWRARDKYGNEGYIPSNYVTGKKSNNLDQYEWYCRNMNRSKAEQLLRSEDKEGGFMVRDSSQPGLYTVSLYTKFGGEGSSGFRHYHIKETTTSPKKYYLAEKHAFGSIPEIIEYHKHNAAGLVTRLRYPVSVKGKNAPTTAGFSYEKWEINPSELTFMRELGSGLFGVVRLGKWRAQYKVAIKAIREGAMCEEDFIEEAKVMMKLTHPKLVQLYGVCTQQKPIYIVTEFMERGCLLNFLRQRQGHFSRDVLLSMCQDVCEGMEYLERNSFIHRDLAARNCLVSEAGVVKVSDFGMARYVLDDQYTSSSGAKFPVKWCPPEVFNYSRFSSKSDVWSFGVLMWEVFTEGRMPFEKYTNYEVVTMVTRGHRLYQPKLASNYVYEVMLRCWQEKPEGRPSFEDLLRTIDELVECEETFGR

[13] = target: RAC-gamma serine/threonine-protein kinase (Homo sapiens, UniProt Q9Y243)
[14] = target: Mitogen-activated protein kinase kinase kinase 4 (Homo sapiens, UniProt Q9Y6R4)
[15] = target: Ribosomal protein S6 kinase alpha-1 (Homo sapiens, UniProt Q15418)
Chain of Ribosomal protein S6 kinase alpha-1 (Q15418 whole entry): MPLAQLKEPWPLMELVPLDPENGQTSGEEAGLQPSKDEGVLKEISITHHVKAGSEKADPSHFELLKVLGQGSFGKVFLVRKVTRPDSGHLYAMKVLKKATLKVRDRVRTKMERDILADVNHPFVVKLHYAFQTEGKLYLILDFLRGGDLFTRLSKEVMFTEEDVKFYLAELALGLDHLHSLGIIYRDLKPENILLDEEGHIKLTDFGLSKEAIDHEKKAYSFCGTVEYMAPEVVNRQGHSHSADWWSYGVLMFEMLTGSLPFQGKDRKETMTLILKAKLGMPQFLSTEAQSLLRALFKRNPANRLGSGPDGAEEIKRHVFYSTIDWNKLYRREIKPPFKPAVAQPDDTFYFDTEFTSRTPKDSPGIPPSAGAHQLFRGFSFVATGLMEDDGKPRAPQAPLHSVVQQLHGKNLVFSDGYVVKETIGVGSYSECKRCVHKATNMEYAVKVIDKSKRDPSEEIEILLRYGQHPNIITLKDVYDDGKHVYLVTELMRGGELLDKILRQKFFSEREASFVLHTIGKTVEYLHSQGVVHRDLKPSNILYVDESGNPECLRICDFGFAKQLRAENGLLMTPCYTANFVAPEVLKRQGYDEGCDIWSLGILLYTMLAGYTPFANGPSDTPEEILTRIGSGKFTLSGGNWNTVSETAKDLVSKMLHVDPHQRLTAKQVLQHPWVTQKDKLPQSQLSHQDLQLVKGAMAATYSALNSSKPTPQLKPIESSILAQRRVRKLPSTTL

[16] = target: BMP-2-inducible protein kinase (Homo sapiens, UniProt Q9NSY1)
Chain of BMP-2-inducible protein kinase (Q9NSY1 whole entry): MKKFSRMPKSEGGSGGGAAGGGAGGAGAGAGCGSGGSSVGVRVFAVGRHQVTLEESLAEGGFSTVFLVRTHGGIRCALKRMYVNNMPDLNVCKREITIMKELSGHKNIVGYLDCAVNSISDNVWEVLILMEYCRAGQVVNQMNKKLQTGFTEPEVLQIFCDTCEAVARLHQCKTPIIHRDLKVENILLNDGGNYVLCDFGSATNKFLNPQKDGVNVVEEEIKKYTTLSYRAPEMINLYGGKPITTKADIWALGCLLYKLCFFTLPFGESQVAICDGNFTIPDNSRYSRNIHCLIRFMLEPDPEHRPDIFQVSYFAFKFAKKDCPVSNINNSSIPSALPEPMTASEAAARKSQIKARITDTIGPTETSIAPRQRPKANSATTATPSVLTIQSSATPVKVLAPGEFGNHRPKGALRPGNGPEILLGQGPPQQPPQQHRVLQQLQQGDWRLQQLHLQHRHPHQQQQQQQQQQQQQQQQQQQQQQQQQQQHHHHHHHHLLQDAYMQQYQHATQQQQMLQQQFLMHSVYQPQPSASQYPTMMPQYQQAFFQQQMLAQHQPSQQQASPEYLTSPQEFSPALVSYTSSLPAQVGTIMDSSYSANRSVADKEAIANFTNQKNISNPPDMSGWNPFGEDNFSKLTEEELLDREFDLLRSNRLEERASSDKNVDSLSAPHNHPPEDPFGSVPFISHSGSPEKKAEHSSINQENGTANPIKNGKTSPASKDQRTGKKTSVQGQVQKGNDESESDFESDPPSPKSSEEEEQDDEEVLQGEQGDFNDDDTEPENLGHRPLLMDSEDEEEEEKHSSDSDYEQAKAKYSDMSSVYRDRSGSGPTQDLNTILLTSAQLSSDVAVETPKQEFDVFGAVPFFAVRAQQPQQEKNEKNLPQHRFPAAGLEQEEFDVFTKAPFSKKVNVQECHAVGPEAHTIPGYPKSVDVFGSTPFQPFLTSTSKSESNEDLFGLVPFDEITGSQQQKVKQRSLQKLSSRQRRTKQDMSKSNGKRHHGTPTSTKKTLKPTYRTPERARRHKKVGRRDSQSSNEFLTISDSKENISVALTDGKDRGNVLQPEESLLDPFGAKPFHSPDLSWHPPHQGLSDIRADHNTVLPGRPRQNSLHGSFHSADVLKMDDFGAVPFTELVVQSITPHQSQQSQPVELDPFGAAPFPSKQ

[17] = target: Ephrin type-A receptor 7 (Homo sapiens, UniProt Q15375)

Chain of Cyclin-dependent kinase 6 (Q00534 whole entry): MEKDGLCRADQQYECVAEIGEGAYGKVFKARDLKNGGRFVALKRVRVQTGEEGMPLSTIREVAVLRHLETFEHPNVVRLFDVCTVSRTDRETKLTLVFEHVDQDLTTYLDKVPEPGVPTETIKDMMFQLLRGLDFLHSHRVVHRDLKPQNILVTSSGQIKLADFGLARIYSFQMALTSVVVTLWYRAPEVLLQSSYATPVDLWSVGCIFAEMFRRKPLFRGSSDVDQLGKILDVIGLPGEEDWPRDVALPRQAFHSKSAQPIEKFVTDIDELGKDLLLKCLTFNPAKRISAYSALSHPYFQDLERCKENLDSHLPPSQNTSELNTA

| SMILES | Kd [1] | Kd [2] | Kd [3] | Kd [4] | Kd [5] | Kd [6] | Kd [7] | Kd [8] | Kd [9] | Kd [10] | Kd [11] | Kd [12] | Kd [13] | Kd [14] | Kd [15] | Kd [16] | Kd [17] |
| --- | --- | --- | --- | --- | --- | --- | --- | --- | --- | --- | --- | --- | --- | --- | --- | --- | --- |
| Cc1cc(C(=O)NOCCO)c(Nc2ccc(I)cc2F)n(C)c1=O [AZD-8330] | > 30 µM (inactive) | > 30 µM (inactive) | > 30 µM (inactive) | > 30 µM (inactive) | > 30 µM (inactive) | > 30 µM (inactive) | > 30 µM (inactive) | > 30 µM (inactive) | > 30 µM (inactive) | > 30 µM (inactive) | > 30 µM (inactive) | > 30 µM (inactive) | > 30 µM (inactive) | > 30 µM (inactive) | > 30 µM (inactive) | > 30 µM (inactive) | – |
| C#Cc1cccc(Nc2ncnc3cc(OC)c(OCCCCCCC(=O)NO)cc23)c1 [CUDC-101] | > 30 µM (inactive) | > 30 µM (inactive) | > 30 µM (inactive) | > 30 µM (inactive) | > 30 µM (inactive) | > 30 µM (inactive) | > 30 µM (inactive) | > 30 µM (inactive) | > 30 µM (inactive) | > 30 µM (inactive) | > 30 µM (inactive) | > 30 µM (inactive) | > 30 µM (inactive) | > 30 µM (inactive) | > 30 µM (inactive) | > 30 µM (inactive) | – |
| O=C(Nc1cc(C(F)(F)F)cc(C(F)(F)F)c1)c1cc(Cl)ccc1O [IMD-0354] | > 30 µM (inactive) | > 30 µM (inactive) | 3.22 µM | > 30 µM (inactive) | > 30 µM (inactive) | > 30 µM (inactive) | > 30 µM (inactive) | > 30 µM (inactive) | > 30 µM (inactive) | > 30 µM (inactive) | > 30 µM (inactive) | > 30 µM (inactive) | – | > 30 µM (inactive) | > 30 µM (inactive) | > 30 µM (inactive) | > 30 µM (inactive) |
| CNC(=O)c1cc(Oc2ccc(NC(=O)Nc3cc(C(C)(C)C)nn3-c3ccc4ncccc4c3)c(F)c2)ccn1 [REBASTINIB] | > 30 µM (inactive) | > 30 µM (inactive) | 2.18 µM (active) | 2.65 µM (active) | > 30 µM (inactive) | > 30 µM (inactive) | > 30 µM (inactive) | 1.28 µM (active) | > 30 µM (inactive) | 16.1 µM | > 30 µM (inactive) | > 30 µM (inactive) | > 30 µM (inactive) | > 30 µM (inactive) | > 30 µM (inactive) | > 30 µM (inactive) | – |

More lines, now with the values ahead:

| Kd [1] | Kd [2] | Kd [3] | Kd [4] | Kd [5] | Kd [6] | Kd [7] | Kd [8] | Kd [9] | Kd [10] | Kd [11] | Kd [12] | Kd [13] | Kd [14] | Kd [15] | Kd [16] | Kd [17] | SMILES |
| --- | --- | --- | --- | --- | --- | --- | --- | --- | --- | --- | --- | --- | --- | --- | --- | --- | --- |
| > 30 µM (inactive) | > 30 µM (inactive) | > 30 µM (inactive) | > 30 µM (inactive) | > 30 µM (inactive) | > 30 µM (inactive) | > 30 µM (inactive) | > 30 µM (inactive) | > 30 µM (inactive) | > 30 µM (inactive) | – | > 30 µM (inactive) | > 30 µM (inactive) | > 30 µM (inactive) | > 30 µM (inactive) | > 30 µM (inactive) | – | Cc1nc2cc(-n3ncc(C(=O)c4cc5ccccc5[nH]4)c3N)ccc2[nH]1 [FGFR INHIBITOR DEBIO 1347] |
| > 30 µM (inactive) | > 30 µM (inactive) | > 30 µM (inactive) | > 30 µM (inactive) | > 30 µM (inactive) | > 30 µM (inactive) | > 30 µM (inactive) | > 30 µM (inactive) | > 30 µM (inactive) | > 30 µM (inactive) | > 30 µM (inactive) | > 30 µM (inactive) | – | > 30 µM (inactive) | > 30 µM (inactive) | > 30 µM (inactive) | > 30 µM (inactive) | NC1(c2ccc(-c3nc4ccn5c(=O)[nH]nc5c4cc3-c3ccccc3)cc2)CCC1 [MK-2206] |
| > 30 µM (inactive) | > 30 µM (inactive) | > 30 µM (inactive) | > 30 µM (inactive) | > 30 µM (inactive) | > 30 µM (inactive) | > 30 µM (inactive) | > 30 µM (inactive) | > 30 µM (inactive) | > 30 µM (inactive) | > 30 µM (inactive) | > 30 µM (inactive) | > 30 µM (inactive) | > 30 µM (inactive) | > 30 µM (inactive) | > 30 µM (inactive) | – | CO[C@H]1C[C@@H]2CC[C@@H](C)[C@@](O)(O2)C(=O)C(=O)N2CCCC[C@H]2C(=O)O[C@H]([C@H](C)C[C@@H]2CC[C@@H](OP(C)(C)=O)[C@H](OC)C2)CC(=O)[C@H](C)/C=C(\C)[C@@H](O)[C@@H](OC)C(=O)[C@H](C)C[C@H](C)/C=C/C=C/C=C/1C [RIDAFOROLIMUS] |
| > 30 µM (inactive) | > 30 µM (inactive) | > 30 µM (inactive) | – | > 30 µM (inactive) | > 30 µM (inactive) | > 30 µM (inactive) | > 30 µM (inactive) | > 30 µM (inactive) | > 30 µM (inactive) | > 30 µM (inactive) | > 30 µM (inactive) | > 30 µM (inactive) | > 30 µM (inactive) | > 30 µM (inactive) | > 30 µM (inactive) | – | CO[C@H]1C[C@@H]2CC[C@@H](C)[C@@](O)(O2)C(=O)C(=O)N2CCCC[C@H]2C(=O)O[C@H]([C@H](C)C[C@@H]2CC[C@@H](O)[C@H](OC)C2)CC(=O)[C@H](C)/C=C(\C)[C@@H](O)[C@@H](OC)C(=O)[C@H](C)C[C@H](C)/C=C/C=C/C=C/1C [SIROLIMUS] |
| > 30 µM (inactive) | > 30 µM (inactive) | > 30 µM (inactive) | > 30 µM (inactive) | > 30 µM (inactive) | > 30 µM (inactive) | > 30 µM (inactive) | > 30 µM (inactive) | > 30 µM (inactive) | > 30 µM (inactive) | > 30 µM (inactive) | > 30 µM (inactive) | – | > 30 µM (inactive) | > 30 µM (inactive) | > 30 µM (inactive) | > 30 µM (inactive) | Cn1ncc(Cl)c1-c1cc(C(=O)N[C@H](CN)Cc2ccc(F)c(F)c2)oc1Cl [UPROSERTIB] |
